{"source": "patent US9426996B2", "about": "“Use of benzoxaboroles as volatile antimicrobial agents on meats, plants, or plant parts” (AgroFresh Inc., priority 2013, dated 2016)", "key": {"Penicillium digitatum": {"test_system": "Penicillium digitatum", "test": "in vivo contact drench assay on oranges", "description": "In order to assess the activity of Compound A (FIG. 1) as a contact drench fungicide, an in vivo assay is developed. […] Compound A is dissolved in water to achieve a final treatment solution concentration of 250, 50, or 10 mg/L. The fruit is dipped in Compound A solution for 1 minute and allowed to dry for 1 hour. Fruit wounds are then inoculated with 30 μL of 1×10^6 per mL Penicillium expansum spore suspension (apple) or Penicillium digitatum spore suspension (orange). Clamshells are then placed in a 10.8-cup SnapWare airtight container (Model #109842) and incubated for 3 days at 21° C."}, "Alternaria alternata": {"test_system": "Alternaria alternata", "test": "combination treatment with 1-MCP on tomato", "type": "in vivo", "settings": "tomatoes", "description": "Each tomato fruit is wounded three times and inoculated with 1×10^6 spores/mL of Alternaria alternata and then placed in a 117 L Rubbermaid storage box (Cat #2244) with two small fans placed in opposite ends of the container. A 1000 ppb v/v 1-MCP treatment is applied (AgroFresh, Springhouse, Pa.) for 24 hours at 21° C. After completion of the 1-MCP treatment, the tomatoes are removed and placed in a 10.8-cup […] airtight container (Model #109842). […] The tomatoes are incubated for three days at 21° C., then evaluated for an additional three days at 21° C. for disease incidence and severity. Results listed in Table 29 show good activity against Alternaria alternata infection of tomato."}, "Penicillium expansum": {"test_system": "Penicillium expansum", "test": "in vivo volatile bioassay using apple", "settings": "50 mg/L; for Sporulation (mm) / Rot (mm): apples", "description": "In order to assess the in vivo activity of volatile antimicrobial Compound A in fruit, a volatile bioassay is developed using apple. Two apples are placed inside a PET clamshell. Three fresh wounds per apple are inoculated with 30 μL of 1×10^6 per mL Penicillium expansum spore suspension. The clamshells are placed inside a 10.8-cup SnapWare airtight container (Model #109842). A 42.5 mm Whatman #1 filter disk (Cat. No. 1001-042) is placed on a watch glass. Compound A is dissolved in acetone and added to the disks in a manner to produce a final headspace concentration of 50 mg/L. The acetone is permitted to evaporate for five minutes. The containers are then closed with the lids, and placed for three days at 21° C. After storage, fruits are evaluated for disease incidence (mm diameter of the rot) and pathogen sporulation (mm diameter) on the surface of the fruits for an additional three days at 21° C., with results summarized in Table 19."}, "Botrytis cinerea [1]": {"test_system": "Botrytis cinerea", "test": "in vivo strawberry assay comparing fog and sublimation", "settings": "10 mg/L, three day treatment plus three days at 21° C.", "description": "To compare the ability of Compound A when actively volatilized by different mechanisms, an in vivo assay using strawberry is performed. Eight strawberries are placed in a clamshell with stem end facing downwards. […] The clamshell is placed in a 10.8-cup SnapWare airtight container (Model #109842) and closed with the lids. Compound A is dissolved in acetone and volatilized through a sealable ½ inch side port by an ES-100-H SmartFog system (Reno, Nev.). Alternatively, Compound A, dissolved in acetone, is pipetted onto a cotton strip, where the acetone is allowed to evaporate for five minutes, and then introduced into the container by a sublimation device (copper tube heated to 200° C. with fan flow at 0.5 L/min) to achieve a final headspace concentration of 10 mg/L. The fruits are stored for three days at 21° C. After the three days of treatment, fruit are stored for an additional three days at 21° C., and then evaluated for incidence (%) and severity of disease (0 to 4)."}, "Xanthomonas axonopodis": {"test_system": "Xanthomonas axonopodis", "test": "in vitro volatile assay, minimum bactericidal concentration (Example 11)", "type": "cell-based", "settings": "headspace concentration; 23° C. for 48 hours", "description": "(§1) 12-Well (6.5 mL volume per well) microtiter plates are used for the in vitro inhibition assay for volatile antimicrobial Compound A (FIG. 1) against numerous bacterial pathogens. A 3-mL volume of Nutrient agar is added to each well and allowed to dry before introducing the pathogen. Escherichia coli, Pectobacterium carotovorum, Xanthomonas axonopodis and Salmonella enterica cell suspensions are adjusted to an optical density of 0.2 to 0.35, and further diluted 1/10, and 15 μL is pipetted to the center of each well and tilted to distribute uniformly. A Whatman #1 filter paper (CAT 1001-0155) is placed on the underside of a polyethylene PCR plate sealing film. […] The films with the treated disks are then applied over the inoculated plates and sealed. Plates are inverted, and incubated at 23° C. for 48 hours. After the incubation period, the bacteria colonies are dislodged in sterile water containing tween 80 (0.001%) and the optical density (OD; 600 nm) is determined Results are summarized in Table 10, where the headspace concentration required to control at least 80% of bacterial growth is reported."}, "[2]": {"test_system": "Pectobacterium carotovorum", "test": "in vitro volatile assay, minimum bactericidal concentration (Example 11)", "type": "cell-based", "settings": "headspace concentration; 23° C. for 48 hours", "description": "as §1"}, "Botrytis cinerea [3]": {"test_system": "Botrytis cinerea", "test": "in vivo strawberry assay, release from cardboard or filter paper", "settings": "strawberries", "source_text": "An in vivo assay is used to evaluate the ability of Compound A to volatilize from different materials and control fungal pathogens. Eight strawberries are placed in a clamshell with the stem end facing downwards. […] The clamshells are then placed in a 10.8-cup SnapWare airtight container (Model #109842). As a substrate for Compound A, either a 42.5 mm Whatman #1 filter disk (Cat. No. 1001-042) placed on a watch glass or 10 square centimeter (cm^2) pieces of cardboard typically used for packaging strawberries was used. Compound A is dissolved in acetone and either pipetted on the disk or painted on the cardboard at a rate to achieve a final headspace concentration of 0.4, 2, or 10 mg/L. The acetone is permitted to evaporate for five minutes. The containers are closed, and placed for three days at 21° C. After treatment, fruit are stored for an additional two days at 21° C. and then evaluated for incidence (%) and severity (0 to 4) of disease, with the results summarized in Table 24."}}}
{"smiles": "OB1OCc2cc(F)ccc21", "note": "[Compound A]", "values": [{"measurement": "Sporulation (mm)", "setting": "Penicillium digitatum; dip 10 mg/L", "value": 16.6, "unit": "mm"}, {"measurement": "Water soaked (mm)", "setting": "Penicillium digitatum; dip 10 mg/L", "value": 27.5, "unit": "mm"}, {"measurement": "Sporulation (mm)", "setting": "Penicillium digitatum; dip 50 mg/L", "value": 12.0, "unit": "mm"}, {"measurement": "Water soaked (mm)", "setting": "Penicillium digitatum; dip 50 mg/L", "value": 18.8, "unit": "mm"}, {"measurement": "Sporulation (mm)", "setting": "Penicillium digitatum; dip 250 mg/L", "value": 0.4, "unit": "mm"}, {"measurement": "Water soaked (mm)", "setting": "Penicillium digitatum; dip 250 mg/L", "value": 1.7, "unit": "mm"}, {"measurement": "Diameter of the rot (mm)", "setting": "Alternaria alternata; 0.4 mg/L", "value": 3.8, "unit": "mm"}, {"measurement": "Diameter of the rot (mm)", "setting": "Alternaria alternata; 2 mg/L", "value": 0.0, "unit": "mm"}, {"measurement": "in vivo volatile antimicrobial control of P. expansum mold of apple", "setting": "Penicillium expansum; up to 3 days after treatment", "value": 100, "unit": "%"}, {"measurement": "Sporulation (mm)", "setting": "Penicillium expansum; Day 0", "value": 0, "unit": "mm"}, {"measurement": "Rot (mm)", "setting": "Penicillium expansum; Day 1", "value": 0, "unit": "mm"}, {"measurement": "Sporulation (mm)", "setting": "Penicillium expansum; Day 1", "value": 0, "unit": "mm"}, {"measurement": "Rot (mm)", "setting": "Penicillium expansum; Day 2", "value": 0, "unit": "mm"}, {"measurement": "Sporulation (mm)", "setting": "Penicillium expansum; Day 2", "value": 0, "unit": "mm"}, {"measurement": "Rot (mm)", "setting": "Penicillium expansum; Day 3", "value": 0, "unit": "mm"}, {"measurement": "Sporulation (mm)", "setting": "Penicillium expansum; Day 3", "value": 0, "unit": "mm"}, {"measurement": "Incidence (%)", "setting": "Botrytis cinerea [1]; Fog", "value": 6.3, "unit": "%"}, {"measurement": "Severity (0 to 4)", "setting": "Botrytis cinerea [1]; Fog", "value": 0.03}, {"measurement": "Incidence (%)", "setting": "Botrytis cinerea [1]; Sublimation", "value": 0.0, "unit": "%"}, {"measurement": "Severity (0 to 4)", "setting": "Botrytis cinerea [1]; Sublimation", "value": 0.0}, {"measurement": "Rate (mg/L) offering at least 80% control, X. axonopodis", "setting": "Xanthomonas axonopodis", "value": 4.5, "unit": "mg/L"}, {"measurement": "Rate (mg/L) offering at least 80% control, P. carotovorum", "setting": "[2]", "value": 2.2, "unit": "mg/L"}, {"measurement": "Incidence (%)", "setting": "Botrytis cinerea [3]; 0.4 mg/L, Cardboard", "value": 87.5, "unit": "%"}, {"measurement": "Severity (0-4)", "setting": "Botrytis cinerea [3]; 0.4 mg/L, Cardboard", "value": 0.9}, {"measurement": "Incidence (%)", "setting": "Botrytis cinerea [3]; 0.4 mg/L, Filter Paper", "value": 56.3, "unit": "%"}, {"measurement": "Severity (0-4)", "setting": "Botrytis cinerea [3]; 0.4 mg/L, Filter Paper", "value": 2.5}, {"measurement": "Incidence (%)", "setting": "Botrytis cinerea [3]; 2 mg/L, Cardboard", "value": 37.5, "unit": "%"}, {"measurement": "Severity (0-4)", "setting": "Botrytis cinerea [3]; 2 mg/L, Cardboard", "value": 0.3}, {"measurement": "Incidence (%)", "setting": "Botrytis cinerea [3]; 2 mg/L, Filter Paper", "value": 37.5, "unit": "%"}, {"measurement": "Severity (0-4)", "setting": "Botrytis cinerea [3]; 2 mg/L, Filter Paper", "value": 0.6}, {"measurement": "Incidence (%)", "setting": "Botrytis cinerea [3]; 10 mg/L, Cardboard", "value": 25, "unit": "%"}, {"measurement": "Severity (0-4)", "setting": "Botrytis cinerea [3]; 10 mg/L, Cardboard", "value": 0.2}, {"measurement": "Incidence (%)", "setting": "Botrytis cinerea [3]; 10 mg/L, Filter Paper", "value": 18.8, "unit": "%"}, {"measurement": "Severity (0-4)", "setting": "Botrytis cinerea [3]; 10 mg/L, Filter Paper", "value": 0.3}]}
